According to ChEMBL document CHEMBL3045004, “Design, synthesis and in vitro antibacterial and antifungal activities of some novel spiro[azetidine-2,3-indole]-2,4(1H)-dione” (2011):
≈ marks a conversion by molar mass, not a printed value. Calls of active or inactive are those of the source. No cut-off for these calls is given here.

How the values were obtained:
Aspergillus niger [1] = assay: Antifungal activity against Aspergillus niger MTCC-343 after 3 to 4 days by serial plate dilution method; assay type: functional; conditions: for MIC: Aspergillus niger, MTCC-343
Candida albicans [2] = assay: Antifungal activity against Candida albicans MTCC-183 after 3 to 4 days by serial plate dilution method; assay type: functional; conditions: for MIC: Candida albicans, MTCC-183
Pseudomonas aeruginosa = assay: Antibacterial activity against Pseudomonas aeruginosa MTCC-647 after 24 hr by disk-diffusion method; assay type: functional
Escherichia coli = assay: Antibacterial activity against Escherichia coli MTCC-521 after 24 hr by disk diffusion method; assay type: functional
Staphylococcus aureus = assay: Antibacterial activity against Staphylococcus aureus MTCC-96 after 24 hr by disk-diffusion method; assay type: functional
Aspergillus niger [3] = assay: Antifungal activity against Aspergillus niger MTCC-343 at >100 ug/ml after 3 to 4 days by serial plate dilution method; assay type: functional, organism-based
Candida albicans [4] = assay: Antifungal activity against Candida albicans MTCC-183 at >100 ug/ml after 3 to 4 days by serial plate dilution method; assay type: functional, organism-based
[5] = Pseudomonas aeruginosa, MTCC-647, 24 h
[6] = Escherichia coli, MTCC-521, 24 h
[7] = Staphylococcus aureus, MTCC-96, 24 h

Molecule | inhibition zone (IZ) (Aspergillus niger [1]) [mm] | MIC (Aspergillus niger [1]) [µg/mL] | inhibition zone (IZ) (Candida albicans [2]) [mm] | MIC (Candida albicans [2]) [µg/mL] | diameter of the inhibition zone (DIZ) (Pseudomonas aeruginosa) [mm] | MIC (Pseudomonas aeruginosa; [5]) [µg/mL] | diameter of the inhibition zone (DIZ) (Escherichia coli) [mm] | MIC (Escherichia coli; [6]) [µg/mL] | diameter of the inhibition zone (DIZ) (Staphylococcus aureus) [mm] | MIC (Staphylococcus aureus; [7]) [µg/mL] | Activity (Aspergillus niger [3]) | Activity (Candida albicans [4]) | MIC (Pseudomonas aeruginosa) [µg/mL] | MIC (Escherichia coli) [µg/mL] | MIC (Staphylococcus aureus) [µg/mL]
Cc1ccccc1N1C(=O)C(Cl)C12C(=O)Nc1ccccc12 (stereo unspecified) | 24 | 6.25 (≈ 20 µM) | 11 | 25 (≈ 79.9 µM) | 17 | 25 (≈ 79.9 µM) | 19 | 25 (≈ 79.9 µM) | 22 | 12.5 (≈ 40 µM) | – | – | – | – | –
O=C1C(Cl)C2(C(=O)Nc3c(Br)cc(Br)cc32)N1c1ccc([N+](=O)[O-])cc1 (stereo unspecified) | 23 | 6.25 (≈ 12.5 µM) | 26 | 6.25 (≈ 12.5 µM) | 28 | 6.25 (≈ 12.5 µM) | 24 | 6.25 (≈ 12.5 µM) | 28 | 6.25 (≈ 12.5 µM) | – | – | – | – | –
CCC(C)n1ncn(-c2ccc(N3CCN(c4ccc(OCC5COC(Cn6cncn6)(c6ccc(Cl)cc6Cl)O5)cc4)CC3)cc2)c1=O (stereo unspecified) [ITRACONAZOLE] | 25 | 6.25 (≈ 8.86 µM) | 27 | 6.25 (≈ 8.86 µM) | – | – | – | – | – | – | – | – | – | – | –
O=C1C(Cl)C2(C(=O)Nc3c(Br)cc(Br)cc32)N1c1ccccc1 (stereo unspecified) | 14 | 25 (≈ 54.8 µM) | 17 | 12.5 (≈ 27.4 µM) | 26 | 12.5 (≈ 27.4 µM) | 21 | 12.5 (≈ 27.4 µM) | 24 | 6.25 (≈ 13.7 µM) | – | – | – | – | –
O=C1C(Cl)C2(C(=O)Nc3ccccc32)N1c1ccccc1 (stereo unspecified) | 22 | 12.5 (≈ 41.8 µM) | 23 | 6.25 (≈ 20.9 µM) | 18 | 25 (≈ 83.7 µM) | 19 | 25 (≈ 83.7 µM) | 21 | 12.5 (≈ 41.8 µM) | – | – | – | – | –
OC(Cn1cncn1)(Cn1cncn1)c1ccc(F)cc1F [FLUCONAZOLE] | 26 | 6.25 (≈ 20.4 µM) | 27 | 6.25 (≈ 20.4 µM) | – | – | – | – | – | – | – | – | – | – | –
CN[C@@H]1[C@H](O[C@H]2[C@H](O[C@H]3[C@H](O)[C@@H](O)[C@H](N=C(N)N)[C@@H](O)[C@@H]3N=C(N)N)O[C@@H](C)[C@]2(O)C=O)O[C@@H](CO)[C@H](O)[C@H]1O [STREPTOMYCIN] | – | – | – | – | 31 | 6.25 (≈ 10.7 µM) | 26 | 6.25 (≈ 10.7 µM) | 31 | 6.25 (≈ 10.7 µM) | – | – | – | – | –
Cc1ccc(N2C(=O)C(Cl)C23C(=O)Nc2c(Br)cc(Br)cc23)cc1 (stereo unspecified) | – | – | 16 | 12.5 (≈ 26.6 µM) | 26 | 6.25 (≈ 13.3 µM) | 22 | 12.5 (≈ 26.6 µM) | 24 | 6.25 (≈ 13.3 µM) | inactive | – | – | – | –
Cc1ccccc1N1C(=O)C(Cl)C12C(=O)Nc1c(Br)cc(Br)cc12 (stereo unspecified) | 17 | 12.5 (≈ 26.6 µM) | 19 | 6.25 (≈ 13.3 µM) | 24 | 12.5 (≈ 26.6 µM) | 23 | 6.25 (≈ 13.3 µM) | 23 | 6.25 (≈ 13.3 µM) | – | – | – | – | –
Cc1ccc(N2C(=O)C(Cl)C23C(=O)Nc2ccccc23)cc1 (stereo unspecified) | 22 | 6.25 (≈ 20 µM) | 16 | 12.5 (≈ 40 µM) | 17 | 25 (≈ 79.9 µM) | 20 | 25 (≈ 79.9 µM) | 19 | 25 (≈ 79.9 µM) | – | – | – | – | –
O=C1C(Cl)C2(C(=O)Nc3c(Br)cc(Br)cc32)N1c1ccccc1[N+](=O)[O-] (stereo unspecified) | 14 | 25 (≈ 49.8 µM) | 19 | 6.25 (≈ 12.5 µM) | 27 | 6.25 (≈ 12.5 µM) | 21 | 6.25 (≈ 12.5 µM) | 27 | 6.25 (≈ 12.5 µM) | – | – | – | – | –
O=C1C(Cl)C2(C(=O)Nc3ccccc32)N1c1ccccc1[N+](=O)[O-] (stereo unspecified) | 17 | 12.5 (≈ 36.4 µM) | – | – | 19 | 25 (≈ 72.7 µM) | 21 | 12.5 (≈ 36.4 µM) | 17 | 12.5 (≈ 36.4 µM) | – | inactive | – | – | –
CC1(C)S[C@@H]2[C@H](NC(=O)[C@H](N)c3ccc(O)cc3)C(=O)N2[C@H]1C(=O)O [AMOXICILLIN] | – | – | – | – | 30 | 6.25 (≈ 17.1 µM) | 25 | 6.25 (≈ 17.1 µM) | 29 | 6.25 (≈ 17.1 µM) | – | – | – | – | –
GENTAMICIN | – | – | – | – | – | – | – | – | – | – | – | – | 6.25 | 6.25 | 6.25
O=C1C(Cl)C2(C(=O)Nc3ccccc32)N1c1ccc([N+](=O)[O-])cc1 (stereo unspecified) | 24 | 6.25 (≈ 18.2 µM) | 25 | 6.25 (≈ 18.2 µM) | 17 | 25 (≈ 72.7 µM) | 20 | 25 (≈ 72.7 µM) | 19 | 25 (≈ 72.7 µM) | – | – | – | – | –
